Assay results: ChEMBL document CHEMBL5584247, “Stereochemical properties of quazepam and its affinity for the GABAA receptor” (Bioorg Med Chem Lett, 2024)
Several values for one entry are separate records, joined by “and”; a condition that tells them apart may be missing. Equal values may be shown once.

How the values were obtained:
[1] = target: T1, GABA-A receptor; anion channel (Homo sapiens) (UniProt P14867+P47870+P18507+P28472+P48169+Q99928+Q9UN88+P34903+O00591+O14764+Q8N1C3+P18505+P78334+P47869+P31644+Q16445); assay: Inhibition of GABAA receptor (unknown origin) at 50 uM relative to control; type: protein-complex assay
[2] = target: T1, GABA-A receptor; anion channel (Homo sapiens); assay: Inhibition of GABAA receptor (unknown origin) at 10 uM relative to control; type: protein-complex assay

SMILES: Cc1cc(Cl)cc2c1N(CC(F)(F)F)C(=S)CN=C2c1ccccc1F
- inhibition [1]: 35% and 31%
- inhibition ([1]; INHIBITOR): 53%
- inhibition [2]: 24% and 17% and 26%
